Experimental data reported in patent US8198273B2, “Compounds and methods for kinase modulation, and indications therefor” (Plexxikon Inc., priority 2009, dated 2012).

Assays:
[1] = Relative solubility by turbidity in aqueous buffers of varying pH; type: physicochemical; settings: for turbidity threshold (L, M, H) 7.4: HEPES pH 7.4; for turbidity threshold (L, M, H) 4.5: SIF pH 4.5; for turbidity threshold (L, M, H) 6.8: SIF pH 6.8; for turbidity threshold (L, M, H) 1.4: buffer pH 1.4 (SGF)
Method in brief: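 Turbidity endpoint: concentration where optical density at 490, 535 and 650 nm exceeds 0.01, three-wavelength average used. Buffers at pH 1.5, 4.5, 6.8 and 7.4; DMSO serial dilutions of 25 mM stock spiked 1 μL into 99 μL buffer. Low <31.3, moderate 31.3–250, high >250 μM.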

[2] = target: CYP2C19 (Homo sapiens, UniProt P33261); experiment: CYP2C19 inhibition (fluorescent substrate); type: in vitro ADME; settings: CYP2C19, CEC substrate; read-out: Cyp IC50 2C19
Method in brief: (§1)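 Human CYP activity was followed by the fluorescence of the metabolized product of a known substrate, which falls as metabolism is inhibited. Compounds from 100 mM DMSO stocks were serially diluted 1:1 over 10 points in co-factor mix and preincubated 10 min at 37 °C. IC50 was fitted from signal versus concentration.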

[3] = target: CYP2D6 (Homo sapiens, UniProt P10635); experiment: CYP2D6 inhibition (fluorescent substrate); type: in vitro ADME; settings: CYP2D6, AMMC substrate; read-out: Cyp IC50 2D6
Method in brief: as §1

[4] = target: c-Raf-1 (Homo sapiens, UniProt P04049); experiment: c-Raf-1 biochemical kinase inhibition (AlphaScreen, biotin-MEK1 substrate); settings: 100 μM ATP
Method in brief: (§2)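 Raf kinases phosphorylating biotin-MEK1, reaction started with ATP at 100 μM final. Compounds tested at 8 points by serial dilution from a 0.1 mM DMSO stock.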

[5] = target: B-Raf V600E (Homo sapiens, UniProt P15056, V600E); experiment: B-Raf V600E biochemical kinase inhibition (AlphaScreen, biotin-MEK1 substrate); settings: 100 μM ATP
Method in brief: as §2

Chain of c-Raf-1 (P04049 whole entry): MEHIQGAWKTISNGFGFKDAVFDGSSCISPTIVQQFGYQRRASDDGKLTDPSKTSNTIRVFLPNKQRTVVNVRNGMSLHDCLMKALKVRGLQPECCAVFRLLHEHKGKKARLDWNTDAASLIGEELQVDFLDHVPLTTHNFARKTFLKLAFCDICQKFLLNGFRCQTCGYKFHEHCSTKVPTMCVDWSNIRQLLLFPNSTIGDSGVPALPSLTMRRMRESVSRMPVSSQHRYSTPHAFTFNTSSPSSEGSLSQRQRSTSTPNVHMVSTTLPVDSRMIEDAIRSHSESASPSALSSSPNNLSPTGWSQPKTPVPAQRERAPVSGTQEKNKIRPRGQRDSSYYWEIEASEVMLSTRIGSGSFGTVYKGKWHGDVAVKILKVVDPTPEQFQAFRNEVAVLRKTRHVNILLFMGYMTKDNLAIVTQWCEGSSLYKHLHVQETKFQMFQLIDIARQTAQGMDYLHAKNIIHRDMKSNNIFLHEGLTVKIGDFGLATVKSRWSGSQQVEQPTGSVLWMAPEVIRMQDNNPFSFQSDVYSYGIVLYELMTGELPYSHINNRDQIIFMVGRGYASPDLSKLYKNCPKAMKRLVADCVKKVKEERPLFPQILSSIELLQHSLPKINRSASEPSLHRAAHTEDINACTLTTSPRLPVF
Chain of CYP2D6 (P10635 whole entry): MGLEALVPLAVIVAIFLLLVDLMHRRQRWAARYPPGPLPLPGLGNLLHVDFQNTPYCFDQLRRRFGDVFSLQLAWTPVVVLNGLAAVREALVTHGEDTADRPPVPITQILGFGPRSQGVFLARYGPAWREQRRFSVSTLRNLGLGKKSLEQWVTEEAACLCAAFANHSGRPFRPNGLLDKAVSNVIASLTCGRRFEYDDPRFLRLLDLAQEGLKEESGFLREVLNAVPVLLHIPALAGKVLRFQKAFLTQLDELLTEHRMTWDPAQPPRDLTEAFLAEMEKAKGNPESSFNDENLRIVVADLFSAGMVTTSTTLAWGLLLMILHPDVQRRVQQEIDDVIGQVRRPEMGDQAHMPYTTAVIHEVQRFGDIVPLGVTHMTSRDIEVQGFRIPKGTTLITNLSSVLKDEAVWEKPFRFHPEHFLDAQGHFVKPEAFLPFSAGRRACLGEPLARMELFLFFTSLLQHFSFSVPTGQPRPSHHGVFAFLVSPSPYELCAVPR
Chain of CYP2C19 (P33261 whole entry): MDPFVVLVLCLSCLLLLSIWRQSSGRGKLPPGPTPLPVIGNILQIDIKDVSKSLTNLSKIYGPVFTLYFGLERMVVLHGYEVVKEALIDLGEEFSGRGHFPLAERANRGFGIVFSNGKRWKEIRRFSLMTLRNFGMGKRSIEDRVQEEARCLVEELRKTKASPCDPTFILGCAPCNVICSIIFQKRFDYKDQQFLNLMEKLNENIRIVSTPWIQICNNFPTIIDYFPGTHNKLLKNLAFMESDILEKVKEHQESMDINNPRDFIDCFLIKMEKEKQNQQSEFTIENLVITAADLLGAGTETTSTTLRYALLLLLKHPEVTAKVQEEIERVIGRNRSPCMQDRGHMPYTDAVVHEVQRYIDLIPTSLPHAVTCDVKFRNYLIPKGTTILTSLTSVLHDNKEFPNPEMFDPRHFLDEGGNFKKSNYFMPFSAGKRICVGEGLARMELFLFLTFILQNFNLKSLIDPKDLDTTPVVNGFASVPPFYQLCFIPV
Chain of B-Raf V600E (P15056 whole entry V600E): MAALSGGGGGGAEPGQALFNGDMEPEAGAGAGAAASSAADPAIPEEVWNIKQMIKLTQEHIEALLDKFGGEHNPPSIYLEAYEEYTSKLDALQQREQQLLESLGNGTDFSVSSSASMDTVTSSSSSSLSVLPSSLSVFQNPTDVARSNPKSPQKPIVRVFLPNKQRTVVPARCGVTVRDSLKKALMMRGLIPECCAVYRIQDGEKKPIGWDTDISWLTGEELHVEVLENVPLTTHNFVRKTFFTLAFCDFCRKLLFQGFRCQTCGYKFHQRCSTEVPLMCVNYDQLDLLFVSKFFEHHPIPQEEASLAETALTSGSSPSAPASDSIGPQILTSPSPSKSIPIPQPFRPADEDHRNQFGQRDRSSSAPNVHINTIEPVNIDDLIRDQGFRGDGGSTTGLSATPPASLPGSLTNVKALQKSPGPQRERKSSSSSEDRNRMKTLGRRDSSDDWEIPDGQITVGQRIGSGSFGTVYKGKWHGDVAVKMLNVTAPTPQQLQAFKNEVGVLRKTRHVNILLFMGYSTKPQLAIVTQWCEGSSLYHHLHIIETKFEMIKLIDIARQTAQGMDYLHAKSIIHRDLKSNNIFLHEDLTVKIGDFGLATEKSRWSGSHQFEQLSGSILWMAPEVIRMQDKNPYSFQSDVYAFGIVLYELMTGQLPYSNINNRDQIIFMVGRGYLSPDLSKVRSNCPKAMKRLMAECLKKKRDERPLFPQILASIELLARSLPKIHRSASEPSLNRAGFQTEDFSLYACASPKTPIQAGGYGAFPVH

## CCCS(=O)(=O)Nc1ccc(F)c(C(=O)c2c[nH]c3ncc(-c4ccc(NS(C)(=O)=O)cc4)cc23)c1F [P-2165, Propane-1-sulfonic acid {2,4-difluoro-3-[5-(4-methanesulfonylamino-phenyl)-1H-pyrrolo[2,3-b]pyridine-3-carbonyl]-phenyl}-amide]
[1]
  turbidity threshold (L, M, H) 7.4: L (low solubility if the threshold concentration is <31.3 04)
  turbidity threshold (L, M, H) 4.5: L (low solubility if the threshold concentration is <31.3 04)
  turbidity threshold (L, M, H) 6.8: L (low solubility if the threshold concentration is <31.3 04)
  turbidity threshold (L, M, H) 1.4: L (low solubility if the threshold concentration is <31.3 04)
[2]
  IC50: 5 to 10 µM
[3]
  IC50: > 10 µM
[4]
  IC50: < 0.01 µM
[5]
  IC50: < 0.01 µM

## CCCS(=O)(=O)Nc1ccc(F)c(C(=O)c2c[nH]c3ncc(-c4ccc(S(=O)(=O)N5CCOCC5)cc4)cc23)c1F [P-2166, Propane-1-sulfonic acid (2,4-difluoro-3-{5-[4-(morpholine-4-sulfonyl)-phenyl]-1H-pyrrolo[2,3-b]pyridine-3-carbonyl}-phenyl)-amide]
[1]
  turbidity threshold (L, M, H) 7.4: L (low solubility if the threshold concentration is <31.3 04)
  turbidity threshold (L, M, H) 4.5: L (low solubility if the threshold concentration is <31.3 04)
  turbidity threshold (L, M, H) 6.8: L (low solubility if the threshold concentration is <31.3 04)
  turbidity threshold (L, M, H) 1.4: L (low solubility if the threshold concentration is <31.3 04)
[2]
  IC50: > 10 µM
[3]
  IC50: > 10 µM
[4]
  IC50: < 0.01 µM
[5]
  IC50: < 0.01 µM

## COc1ncc(-c2cnc3[nH]cc(C(=O)c4c(F)ccc(NS(=O)(=O)c5c(F)cccc5F)c4F)c3c2)cn1 [P-2043, N-{2,4-Difluoro-3-[5-(2-methoxy-pyrimidin-5-yl)-1H-pyrrolo[2,3-b]pyridine-3-carbonyl]-phenyl}-2,6-difluoro-benzenesulfonamide]
[1]
  turbidity threshold (L, M, H) 7.4: M (moderate solubility if the threshold concentration is 31.3 μM to 250 μM)
  turbidity threshold (L, M, H) 4.5: L (low solubility if the threshold concentration is <31.3 04)
  turbidity threshold (L, M, H) 6.8: L (low solubility if the threshold concentration is <31.3 04)
  turbidity threshold (L, M, H) 1.4: L (low solubility if the threshold concentration is <31.3 04)
[2]
  IC50: > 10 µM
[3]
  IC50: 5 to 10 µM
[4]
  IC50: < 0.01 µM
[5]
  IC50: < 0.01 µM

## CCCS(=O)(=O)Nc1ccc(F)c(C(=O)c2c[nH]c3ncc(-c4ccc(S(=O)(=O)N(C)C)cc4)cc23)c1F [P-2185, 4-{3-[2,6-Difluoro-3-(propane-1-sulfonylamino)-benzoyl]-1H-pyrrolo[2,3-b]pyridin-5-yl}-N,N-dimethyl-benzenesulfonamide]
[1]
  turbidity threshold (L, M, H) 7.4: L (low solubility if the threshold concentration is <31.3 04)
  turbidity threshold (L, M, H) 4.5: L (low solubility if the threshold concentration is <31.3 04)
  turbidity threshold (L, M, H) 6.8: L (low solubility if the threshold concentration is <31.3 04)
  turbidity threshold (L, M, H) 1.4: L (low solubility if the threshold concentration is <31.3 04)
[2]
  IC50: > 10 µM
[3]
  IC50: > 10 µM
[4]
  IC50: < 0.01 µM
[5]
  IC50: < 0.01 µM

## COc1ncc(-c2cnc3[nH]cc(C(=O)c4c(F)ccc(NS(=O)(=O)c5cc(F)ccc5F)c4F)c3c2)cn1 [P-2042, N-{2,4-Difluoro-3-[5-(2-methoxy-pyrimidin-5-yl)-1H-pyrrolo[2,3-b]pyridine-3-carbonyl]-phenyl}-2,5-difluoro-benzenesulfonamide]
[1]
  turbidity threshold (L, M, H) 7.4: L (low solubility if the threshold concentration is <31.3 04)
  turbidity threshold (L, M, H) 4.5: L (low solubility if the threshold concentration is <31.3 04)
  turbidity threshold (L, M, H) 6.8: L (low solubility if the threshold concentration is <31.3 04)
  turbidity threshold (L, M, H) 1.4: L (low solubility if the threshold concentration is <31.3 04)
[2]
  IC50: > 10 µM
[3]
  IC50: > 10 µM
[4]
  IC50: < 0.01 µM
[5]
  IC50: < 0.01 µM

## CCCS(=O)(=O)Nc1ccc(F)c(C(=O)c2c[nH]c3ncc(-c4ccc(OCCCN5CCCC5)nc4)cc23)c1F [P-2235, Propane-1-sulfonic acid (2,4-difluoro-3-{5-[6-(3-pyrrolidin-1-yl-propoxy)-pyridin-3-yl]-1H-pyrrolo[2,3-b]pyridine-3-carbonyl}-phenyl)-amide]
[1]
  turbidity threshold (L, M, H) 7.4: L (low solubility if the threshold concentration is <31.3 04)
  turbidity threshold (L, M, H) 4.5: M (moderate solubility if the threshold concentration is 31.3 μM to 250 μM)
  turbidity threshold (L, M, H) 6.8: L (low solubility if the threshold concentration is <31.3 04)
  turbidity threshold (L, M, H) 1.4: L (low solubility if the threshold concentration is <31.3 04)
[2]
  IC50: < 5 µM
[3]
  IC50: > 10 µM
[4]
  IC50: < 0.01 µM
[5]
  IC50: < 0.01 µM

## CCCS(=O)(=O)Nc1ccc(F)c(C(=O)c2c[nH]c3ncc(C#CCOC)cc23)c1F [P-2239, Propane-1-sulfonic acid {2,4-difluoro-3-[5-(3-methoxy-prop-1-ynyl)-1H-pyrrolo[2,3-b]pyridine-3-carbonyl]-phenyl}-amide]
[1]
  turbidity threshold (L, M, H) 7.4: M (moderate solubility if the threshold concentration is 31.3 μM to 250 μM)
  turbidity threshold (L, M, H) 4.5: M (moderate solubility if the threshold concentration is 31.3 μM to 250 μM)
  turbidity threshold (L, M, H) 6.8: L (low solubility if the threshold concentration is <31.3 04)
  turbidity threshold (L, M, H) 1.4: L (low solubility if the threshold concentration is <31.3 04)
[2]
  IC50: 5 to 10 µM
[3]
  IC50: > 10 µM
[4]
  IC50: < 0.01 µM
[5]
  IC50: < 0.01 µM

## COc1ccnc2[nH]cc(C(=O)c3c(F)ccc(NS(=O)(=O)c4ccccc4F)c3F)c12 [P-2021, N-[2,4-Difluoro-3-(4-methoxy-1H-pyrrolo[2,3-b]pyridine-3-carbonyl)-phenyl]-2-fluoro-benzenesulfonamide]
[1]
  turbidity threshold (L, M, H) 7.4: M (moderate solubility if the threshold concentration is 31.3 μM to 250 μM)
  turbidity threshold (L, M, H) 4.5: M (moderate solubility if the threshold concentration is 31.3 μM to 250 μM)
  turbidity threshold (L, M, H) 6.8: M (moderate solubility if the threshold concentration is 31.3 μM to 250 μM)
  turbidity threshold (L, M, H) 1.4: H (high solubility if the threshold concentration is >250 μM)
[2]
  IC50: > 10 µM
[3]
  IC50: > 10 µM
[4]
  IC50: < 0.01 µM
[5]
  IC50: < 0.1 µM

## N#Cc1ccnc2[nH]cc(C(=O)c3c(F)ccc(NS(=O)(=O)c4ccccc4F)c3F)c12 [P-2020, N-[3-(4-Cyano-1H-pyrrolo[2,3-b]pyridine-3-carbonyl)-2,4-difluoro-phenyl]-2-fluoro-benzenesulfonamide]
[1]
  turbidity threshold (L, M, H) 7.4: M (moderate solubility if the threshold concentration is 31.3 μM to 250 μM)
  turbidity threshold (L, M, H) 4.5: M (moderate solubility if the threshold concentration is 31.3 μM to 250 μM)
  turbidity threshold (L, M, H) 6.8: M (moderate solubility if the threshold concentration is 31.3 μM to 250 μM)
  turbidity threshold (L, M, H) 1.4: M (moderate solubility if the threshold concentration is 31.3 μM to 250 μM)
[2]
  IC50: > 10 µM
[3]
  IC50: > 10 µM
[4]
  IC50: < 0.01 µM
[5]
  IC50: < 0.01 µM

## N#Cc1cnc2[nH]cc(C(=O)c3cccc(NS(=O)(=O)c4ccccc4F)c3F)c2c1 [P-2051, N-[3-(5-Cyano-1H-pyrrolo[2,3-b]pyridine-3-carbonyl)-2-fluoro-phenyl]-2-fluoro-benzenesulfonamide]
[1]
  turbidity threshold (L, M, H) 7.4: M (moderate solubility if the threshold concentration is 31.3 μM to 250 μM)
  turbidity threshold (L, M, H) 4.5: M (moderate solubility if the threshold concentration is 31.3 μM to 250 μM)
  turbidity threshold (L, M, H) 6.8: M (moderate solubility if the threshold concentration is 31.3 μM to 250 μM)
  turbidity threshold (L, M, H) 1.4: M (moderate solubility if the threshold concentration is 31.3 μM to 250 μM)
[2]
  IC50: > 10 µM
[3]
  IC50: > 10 µM
[4]
  IC50: < 0.1 µM
[5]
  IC50: < 0.01 µM

## COc1ncc(-c2cnc3[nH]cc(C(=O)c4c(F)ccc(NS(=O)(=O)c5cccc(F)c5)c4F)c3c2)cn1 [P-2045, N-{2,4-Difluoro-3-[5-(2-methoxy-pyrimidin-5-yl)-1H-pyrrolo[2,3-b]pyridine-3-carbonyl]-phenyl}-3-fluoro-benzenesulfonamide]
[1]
  turbidity threshold (L, M, H) 7.4: M (moderate solubility if the threshold concentration is 31.3 μM to 250 μM)
  turbidity threshold (L, M, H) 4.5: L (low solubility if the threshold concentration is <31.3 04)
  turbidity threshold (L, M, H) 6.8: L (low solubility if the threshold concentration is <31.3 04)
  turbidity threshold (L, M, H) 1.4: L (low solubility if the threshold concentration is <31.3 04)
[2]
  IC50: > 10 µM
[3]
  IC50: > 10 µM
[4]
  IC50: < 0.01 µM
[5]
  IC50: < 0.1 µM

## CCCS(=O)(=O)Nc1ccc(F)c(C(=O)c2c[nH]c3ncc(-c4cnc(N5CCCC5)nc4)cc23)c1F [P-2219, Propane-1-sulfonic acid {2,4-difluoro-3-[5-(2-pyrrolidin-1-yl-pyrimidin-5-yl)-1H-pyrrolo[2,3-b]pyridine-3-carbonyl]-phenyl}-amide]
[1]
  turbidity threshold (L, M, H) 7.4: L (low solubility if the threshold concentration is <31.3 04)
  turbidity threshold (L, M, H) 4.5: L (low solubility if the threshold concentration is <31.3 04)
  turbidity threshold (L, M, H) 6.8: L (low solubility if the threshold concentration is <31.3 04)
  turbidity threshold (L, M, H) 1.4: M (moderate solubility if the threshold concentration is 31.3 μM to 250 μM)
[2]
  IC50: < 5 µM
[3]
  IC50: > 10 µM
[4]
  IC50: < 0.1 µM
[5]
  IC50: < 0.1 µM
